# Values quoted from earlier work in patent US8637073B2 (priority 2003, dated 2014).
# Settings: maintenance of opioid-dependent pregnant women; Eder et al. 2001
structure (smiles),measurement,value
CCC(=O)C(CC(C)N(C)C)(c1ccccc1)c1ccccc1 (stereo not shown) [methadone],neonates in which neonatal abstinence syndrome (NAS) is observed,60-80%
